Data on one molecule can be found in patent US7632819B1, “Methods and compositions for inhibiting PKC delta cleavage for treatment and prevention of neurodegeneration and apoptosis” (Iowa State University Research Foundation, Inc., priority 2004, dated 2009).

This assay relates to N27 cells. The settings on record: for potency in attenuating apoptosis compared with caspase-3 inhibitor DEVD-FMK, in words: 6-OHDA model. As for the experimental part: […] Z is the abbreviation for N-benzyloxycarbonyl. Untreated cells were used as control samples. After the treatment, the cells were collected by trypsinization (Trypsin 0.25%, 1 mM EDTA), centrifuged at 200×g for 5 min, washed with PBS twice, then lysed. The lysate was used for DNA fragmentation assay.
DNA fragmentation assays were performed using a recently developed Cell Death Detection ELISA Plus Assay Kit. This is a fast, highly sensitive and reliable assay for the detection of early changes in apoptotic cell death. After treatments, 20 μl of cell lysate was processed according to the manufacturer's protocol. The assay solution consisted of a mixture of anti-histone biotin and anti-DNA-HRP directed against various histones and antibodies to both single stranded DNA and double stranded DNA, the major constituents of nucleosomes. After 2 hr incubation, unbound components were removed by washing with the incubation buffer supplied with the kit. Quantification of the nucleosomes retained by anti-DNA-HRP in the immunocomplex was determined spectrophotometrically with ABTS (2,2′-azino-di[3-ethoxybenzyl thiazoline sulfonate) as a HRP substrate (supplied with the kit). Measurements were made at 405 nm against an ABTS solution as a blank (reference wave length 490 nm).
Chemicals. Protease cocktail, ATP, protein-A-sepharose, protein-G-sepharose and anti-â-actin antibody were obtained from Sigma-Aldrich (St. Louis, Mo.); mouse tyrosine hydroxylase antibody was purchased from Chemicon (Temecula, Calif.); the rabbit polyclonal antibody for tyrosine hydroxylase was obtained from Calbiochem Bioscience, Inc. (King of Prussia, Pa.); rabbit PKCδ antibody was purchased from Santa Cruz Biotechnology, Inc. (Santa Cruz, Calif.); anti-rabbit and anti-mouse secondary antibodies and the ECL chemiluminescence kit were purchased from Amersham Pharmacia Biotech. (Piscataway, N.J.). Alexa 488 conjugated antirabbit/mouse, Cy3 conjugated anti-rabbit/mouse antibody and Hoechst 33342 were purchased from Molecular Probes, Inc. (Eugene, Oreg.). [ã-32P]ATP was purchased from Perkin Elmer Life Science Products (Boston, Mass.). The Bradford protein assay kit was purchased from Bio-Rad Laboratories (Hercules, Calif.). RPMI, fetal bovine serum, -glutamine, penicillin, and streptomycin were purchased from Invitrogen (Gaithersburg, Md.). Quantity One 4.2.0 software was purchased from Bio-Rad. Design and synthesis of z-DIPD-fmk (SEQ ID NO:5). To develop a cell permeable peptide inhibitor to specifically block PKCδ cleavage, we designed the tetrapeptide Asp-Ile-Pro-Asp (DIPD) (SEQ ID NO:5) corresponding to position 324-327 in rat PKCδ cDNA representing the caspase-3 cleavage site. Since this peptide is directed against the caspase-3 cleavage site of PKCδ, it should prevent the proteolytic cleavage and activation of PKCδ mediated by caspase-3. The custom synthesis of the tetrapeptide Z-Asp(OMe)-Ile-Pro-Asp(OMe)-FMK (SEQ ID NO:5) was performed at MP Biomedicals (Irvine, Calif.), a quality company that specializes in developing cell permeable peptide inhibitors directed against apoptosis cell signaling molecules. Briefly, the synthesis was performed with the reaction of Boc-D(OMe)-OH with MBFM (Magnesium benzyl fluoromalonate) to produce Beta-Keto fluoroester, followed by hydrogenation with Pd/c to produce Boc-D(OMe)FK, which was converted into Tfa salt using trifluoroacetic acid. Coupling of Tfa salt with Z-D(OMe)—I—P—OH in DMF with HOBT, HBTU DIEA and workup produced a crude product which was purified by column chromatography over silica gel. Elution with EtOAC:MeOH 95:5 gave pure fractions which were mixed and dried. Crystallization with EtOAC/Hexane, filtration and drying produced the pure product. Animals.

Molecules are shown by their SMILES. Where two headings read alike, the source gives them in different places. Where a SMILES comes first, the peptide text is derived from it. The star is where a group is joined. Cbz = O=C(OCc1ccccc1)*; CH2F = FC*

The term IC50 denotes the concentration that gives 50% inhibition. Turning to `CC[C@H](C)[C@H](NC(=O)[C@H](CC(=O)OC)NC(=O)OCc1ccccc1)C(=O)N1CCC[C@H]1C(=O)N[C@@H](CC(=O)OC)C(=O)CF` [z-DIPD-fmk, Z-Asp(OMe)-Ile-Pro-Asp(OMe)-FMK] (Cbz-D(OMe)IPD(OMe)-CH2F), the “potency in attenuating apoptosis compared with caspase-3 inhibitor DEVD-FMK, in words” value was “much more potent”. The “effect on 6-OHDA-induced DNA fragmentation / apoptotic cell death” value (100 μM 6-OHDA 24 hr, concentration not stated or dose-response 1-50 μM, listed as N-benzyloxycarbonyl-Asp(OMe)-Ile-Pro-Asp(OMe)-FMK) is “effectively blocked”. For the same molecule, the “effect on 6-OHDA-induced DNA fragmentation” value (100 μM 6-OHDA 24 hr, inhibitor 50 μM) is given as “completely blocked”. Moreover, under “300 μM MPP+ 36 hr, inhibitor 50 μM”, the “effect on MPP+-induced DNA fragmentation” value is given as “significantly attenuated”. The “potency in attenuating apoptosis compared with caspase-3 inhibitor DEVD-FMK, in words” value (listed as N-benzyloxycarbonyl-Asp(OMe)-Ile-Pro-Asp(OMe)-FMK) is “more potent”. For the same molecule, the “effect on MPP+-induced DNA fragmentation” value (MPP+, inhibitor concentration not stated) is listed as “dose-dependently attenuated”. Moreover, the “effect on MPP+-induced DNA fragmentation” value (MPP+, inhibitor concentration not stated, listed as N-benzyloxycarbonyl-Asp(OMe)-Ile-Pro-Asp(OMe)-FMK) is given as “inhibited”. For the same molecule, the “potency relative to z-DEVD-fmk at protecting against 6-OHDA-induced apoptotic cell death” value (from IC50 values) was “at least 3 times”. For the same molecule, for the setting “inhibitor as low as 3 μM”, the “effect on 6-OHDA-induced DNA fragmentation” value was “almost completely inhibits”. Besides, the IC50 (read-out: IC50, 6-OHDA-induced DNA fragmentation (apoptotic cell death), 100 μM 6-OHDA 24 hr, inhibitor 1-50 μM) turned out to be 6 µM.
